Assay results: publication PMC10746543, “Design principles for cyclin K molecular glue degraders” (Nature Chemical Biology, 2023)
Where “and” joins values, the source holds several entries; their conditions need not be identical. Equal values may be shown once. Read-outs that look alike come from different tables or passages of the source.

Columns and labels:
CDK12–cyclin K and DDB1 = target: T1, CDK12–cyclin K and DDB1 (Homo sapiens, UniProt Q16531+Q9NYV4, K965R); experiment: TR-FRET ternary complex formation assay (compound titration); assay type: binding; conditions: for TR-FRET signal at compound concentration: replicate titrations
T1 construct: His6–CDK12 (a.a. 713–1,052); full-length or beta-propeller B domain deletion (ΔBPB: a.a. 396–705 deleted) constructs of His6–DDB1ΔBPB, StrepII–Avi–DDB1, or His6–Spy–DDB1; made in house; host or cells: Trichoplusia ni High Five insect cells (baculovirus)
T1 sequence (Q9NYV4 713-1052 K965R): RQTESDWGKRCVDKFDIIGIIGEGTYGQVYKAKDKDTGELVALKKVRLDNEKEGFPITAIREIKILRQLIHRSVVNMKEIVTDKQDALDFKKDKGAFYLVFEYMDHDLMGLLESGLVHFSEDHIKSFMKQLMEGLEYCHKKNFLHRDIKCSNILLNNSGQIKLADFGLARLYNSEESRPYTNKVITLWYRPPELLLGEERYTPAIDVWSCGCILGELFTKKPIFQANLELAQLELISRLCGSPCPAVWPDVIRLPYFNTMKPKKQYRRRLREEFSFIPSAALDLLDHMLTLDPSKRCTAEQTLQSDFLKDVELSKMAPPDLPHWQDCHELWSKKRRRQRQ
T1 sequence (O75909 1-267 partner): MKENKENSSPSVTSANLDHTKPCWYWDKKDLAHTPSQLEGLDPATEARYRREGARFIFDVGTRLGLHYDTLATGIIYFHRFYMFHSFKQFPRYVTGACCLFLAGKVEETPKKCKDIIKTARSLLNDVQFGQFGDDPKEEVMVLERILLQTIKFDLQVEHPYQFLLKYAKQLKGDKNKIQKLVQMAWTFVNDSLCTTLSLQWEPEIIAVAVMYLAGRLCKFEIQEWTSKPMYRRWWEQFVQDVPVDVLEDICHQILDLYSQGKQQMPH
T1 sequence (Q16531 whole entry): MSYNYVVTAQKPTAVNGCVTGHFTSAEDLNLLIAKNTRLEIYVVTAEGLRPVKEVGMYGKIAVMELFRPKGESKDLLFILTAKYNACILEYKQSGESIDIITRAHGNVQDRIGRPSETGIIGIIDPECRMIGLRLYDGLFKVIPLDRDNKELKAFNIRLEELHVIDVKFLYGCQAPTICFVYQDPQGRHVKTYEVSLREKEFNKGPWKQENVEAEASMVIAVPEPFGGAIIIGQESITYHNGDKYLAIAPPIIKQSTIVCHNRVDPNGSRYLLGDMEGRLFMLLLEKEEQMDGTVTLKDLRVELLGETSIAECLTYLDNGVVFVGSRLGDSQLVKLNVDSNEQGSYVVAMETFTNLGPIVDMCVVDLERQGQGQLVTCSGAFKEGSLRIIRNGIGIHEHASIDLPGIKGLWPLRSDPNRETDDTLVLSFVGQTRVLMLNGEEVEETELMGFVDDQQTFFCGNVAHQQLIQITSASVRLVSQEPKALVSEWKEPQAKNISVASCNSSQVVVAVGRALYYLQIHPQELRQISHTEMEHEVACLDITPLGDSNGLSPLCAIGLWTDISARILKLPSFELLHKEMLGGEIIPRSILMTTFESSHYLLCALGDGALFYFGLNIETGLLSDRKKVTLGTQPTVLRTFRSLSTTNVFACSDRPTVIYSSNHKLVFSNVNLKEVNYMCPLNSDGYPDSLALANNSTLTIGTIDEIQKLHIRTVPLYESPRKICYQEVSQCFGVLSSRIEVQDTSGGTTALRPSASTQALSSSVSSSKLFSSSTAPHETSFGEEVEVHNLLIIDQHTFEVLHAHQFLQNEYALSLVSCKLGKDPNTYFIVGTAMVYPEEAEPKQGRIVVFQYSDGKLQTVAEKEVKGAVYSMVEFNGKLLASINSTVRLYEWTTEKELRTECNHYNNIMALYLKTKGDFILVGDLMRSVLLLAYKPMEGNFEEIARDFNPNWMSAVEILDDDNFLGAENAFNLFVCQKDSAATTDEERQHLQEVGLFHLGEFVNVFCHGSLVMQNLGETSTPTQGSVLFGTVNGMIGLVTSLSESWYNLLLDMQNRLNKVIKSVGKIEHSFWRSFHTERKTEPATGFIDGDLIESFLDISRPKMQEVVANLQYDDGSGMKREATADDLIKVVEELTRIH
In short: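 Signal was the ratio of 520 nm to 490 nm fluorescence, measured after a 70 μs delay that reduced background.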

[1] = test system: cyclin K–eGFP degradation reporter; experiment: Cyclin K reporter stability analysis (dual-color cyclin K–eGFP reporter); assay type: cell-based, human
In short: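 Readout was the eGFP-to-mCherry geometric-mean ratio by flow cytometry, normalized to three DMSO controls, after 5 h drug exposure. Cells used were HEK293T–Cas9 expressing the dual-colour cyclin K–eGFP degradation reporter.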

HEK293T cells = experiment: Drug sensitivity assay (CellTiter-Glo viability) with or without MLN4924 pretreatment; assay type: cell-based, human; conditions: for EC50: Homo sapiens, HEK-293T; for Toxicity rescue: MLN4924-mediated cytotoxicity rescue, 10 µM used where n.d.
In short: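 HEK293T–Cas9, 0.15 × 10^6 ml^−1; pretreat DMSO vs 100 nM MLN4924; drugs dispensed after 2 h; 3 d exposure; CellTiter-Glo; viability vs DMSO control.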

[2] = compound concentration 79.2001 nM
[3] = compound concentration 158.4 nM
[4] = compound concentration 309.6 nM
[5] = compound concentration 626.401 nM
[6] = compound concentration 1252.8 nM
[7] = compound concentration 9936.01 nM
[8] = compound concentration 20016 nM
[9] = Supplementary Table 2, HEK293T cycK-eGFP reporter, 5 h, read-out: Cellular assays DC50
[10] = Supplementary Table 2, HEK293T viability, 72 h, compound alone, read-out: Cellular assays EC50
[11] = in vitro complex formation, 50 nM CDK12–cyclin K, 100 nM DDB1, text and figures, read-out: TR-FRET EC50
[12] = compound concentration 0.468 nM
[13] = compound concentration 7.92001 nM
[14] = compound concentration 15.84 nM
[15] = compound concentration 30.96 nM
[16] = compound concentration 62.6401 nM
[17] = compound concentration 125.28 nM
[18] = compound concentration 244.8 nM
[19] = compound concentration 993.601 nM
[20] = compound concentration 2001.6 nM
[21] = sheet MOESM7, read-out: log TR-FRET EC50 (converted)
[22] = source data sheet correlations, read-out: TR-FRET EC50
[23] = source data sheet correlations, read-out: DC50
[24] = Supplementary Table 2, read-out: TR-FRET EC50 TR-FRET

| SMILES | DC50 [1, 9] [nM] | EC50 (HEK293T cells; [10]) [nM] | Toxicity rescue (HEK293T cells; Supplementary Table 2) [%] | EC50 (CDK12–cyclin K and DDB1; [11]) [nM] | TR-FRET signal at compound concentration (CDK12–cyclin K and DDB1; [12]) | TR-FRET signal at compound concentration (CDK12–cyclin K and DDB1; compound concentration 2.16 nM) | TR-FRET signal at compound concentration (CDK12–cyclin K and DDB1; compound concentration 3.6 nM) | TR-FRET signal at compound concentration (CDK12–cyclin K and DDB1; [13]) | TR-FRET signal at compound concentration (CDK12–cyclin K and DDB1; [14]) | TR-FRET signal at compound concentration (CDK12–cyclin K and DDB1; [15]) | TR-FRET signal at compound concentration (CDK12–cyclin K and DDB1; [16]) | TR-FRET signal at compound concentration (CDK12–cyclin K and DDB1; [17]) | TR-FRET signal at compound concentration (CDK12–cyclin K and DDB1; [18]) | TR-FRET signal at compound concentration (CDK12–cyclin K and DDB1; [19]) | TR-FRET signal at compound concentration (CDK12–cyclin K and DDB1; [20]) | EC50 (CDK12–cyclin K and DDB1; [21]) [nM] | EC50 (CDK12–cyclin K and DDB1; [22]) [nM] | DC50 [1, 23] [nM] | other results |
| --- | --- | --- | --- | --- | --- | --- | --- | --- | --- | --- | --- | --- | --- | --- | --- | --- | --- | --- | --- |
| CC[C@H](CO)Nc1nc(NC)c2ncn(C(C)C)c2n1 [DS23] | > 10000 | > 10000 | 0 | – | – | – | – | – | – | – | – | – | – | – | – | – | – | – | TR-FRET signal, individual replicate (CDK12–cyclin K and DDB1; compound concentration 4.68 nM): 0.1301 and 0.1411; TR-FRET signal, individual replicate (CDK12–cyclin K and DDB1; compound concentration 21.6 nM): 0.1343 and 0.1464; TR-FRET signal, individual replicate (CDK12–cyclin K and DDB1; compound concentration 36 nM): 0.1332 and 0.1524; TR-FRET signal, individual replicate (CDK12–cyclin K and DDB1; [2]): 0.1391 and 0.1534; TR-FRET signal, individual replicate (CDK12–cyclin K and DDB1; [3]): 0.1406 and 0.1374; TR-FRET signal, individual replicate (CDK12–cyclin K and DDB1; [4]): 0.0615 and 0.162; TR-FRET signal, individual replicate (CDK12–cyclin K and DDB1; [5]): 0.1683 and 0.1829; TR-FRET signal, individual replicate (CDK12–cyclin K and DDB1; [6]): 0.1869 and 0.2017; TR-FRET signal, individual replicate (CDK12–cyclin K and DDB1; compound concentration 2448 nM): 0.194 and 0.2082; TR-FRET signal, individual replicate (CDK12–cyclin K and DDB1; [7]): 0.2263 and 0.2491; TR-FRET signal, individual replicate (CDK12–cyclin K and DDB1; [8]): 0.2226 and 0.3132; DDB1–CDK12 complex formation, result in words (CDK12–cyclin K and DDB1; in vitro TR-FRET): did not appreciably promote the binding |
| CCOCCOCCNc1nc(N[C@H](CC)CO)nc2c1ncn2C(C)C [DS13] | > 10000 | > 10000 | 0 | 3230 ± 959 | – | – | – | – | – | – | – | – | – | – | – | – | – | – | TR-FRET signal (CDK12–cyclin K and DDB1; compound concentration 4.68 nM): 0.1269 and 0.1552; TR-FRET signal (CDK12–cyclin K and DDB1; compound concentration 21.6 nM): 0.1368 and 0.156; TR-FRET signal (CDK12–cyclin K and DDB1; compound concentration 36 nM): 0.1404 and 0.1564; TR-FRET signal (CDK12–cyclin K and DDB1; [2]): 0.1332 and 0.164; TR-FRET signal (CDK12–cyclin K and DDB1; [3]): 0.1494 and 0.1683; TR-FRET signal (CDK12–cyclin K and DDB1; [4]): 0.1517 and 0.1802; TR-FRET signal (CDK12–cyclin K and DDB1; [5]): 0.1772 and 0.1976; TR-FRET signal (CDK12–cyclin K and DDB1; [6]): 0.2017 and 0.2255; TR-FRET signal (CDK12–cyclin K and DDB1; compound concentration 2448 nM): 0.2403 and 0.2789; TR-FRET signal (CDK12–cyclin K and DDB1; [7]): 0.333 and 0.3875; TR-FRET signal (CDK12–cyclin K and DDB1; [8]): 0.3528 and 0.412 |
| CC[C@H](CO)Nc1nc(NCc2ccn(-c3cccc(Cl)c3)n2)c2ncn(C(C)C)c2n1 [DS43] | – | 1260 | 697 | 44 ± 2 | 0.2854 and 0.3016 | 0.3338 and 0.3545 | 0.4308 and 0.466 | 0.6201 and 0.666 | 0.9968 and 1.0413 | 1.655 and 1.7184 | 2.415 and 2.607 | 3.042 and 3.307 | 3.43 and 3.794 | 3.717 and 4.015 | 3.6778 and 3.923 | 43.7 | 43.7 | 75 | EC50 (HEK293T cells; Supplementary Fig. 5, HEK293T, CellTiter Glo, 72h, pre-treatment with 100 nM MLN4924, read-out: Viability EC50, with MLN4924): 15500 nM; % MLN4924 rescue (HEK293T cells; PCA input): 649% |
| CC[C@H](CO)Nc1nc(NCCCc2ccnn2C)c2ncn(C(C)C)c2n1 [DS35] | > 10000 | > 10000 | 0 | 246 ± 10 | – | – | – | – | – | – | – | – | – | – | – | 246 | – | – | EC50 (CDK12–cyclin K and DDB1; [24]): 246 nM; TR-FRET signal at compound concentration (CDK12–cyclin K and DDB1; compound concentration 4.68 nM): 0.1529 and 0.1552; TR-FRET signal at compound concentration (CDK12–cyclin K and DDB1; compound concentration 21.6 nM): 0.228 and 0.2468; TR-FRET signal at compound concentration (CDK12–cyclin K and DDB1; compound concentration 36 nM): 0.3788 and 0.4108; TR-FRET signal at compound concentration (CDK12–cyclin K and DDB1; [2]): 0.6173 and 0.6444; TR-FRET signal at compound concentration (CDK12–cyclin K and DDB1; [3]): 0.9157 and 0.9758; TR-FRET signal at compound concentration (CDK12–cyclin K and DDB1; [4]): 1.283 and 1.333; TR-FRET signal at compound concentration (CDK12–cyclin K and DDB1; [5]): 1.6242 and 1.675; TR-FRET signal at compound concentration (CDK12–cyclin K and DDB1; [6]): 1.8781 and 1.924; TR-FRET signal at compound concentration (CDK12–cyclin K and DDB1; compound concentration 2448 nM): 2.069 and 2.096; TR-FRET signal at compound concentration (CDK12–cyclin K and DDB1; [7]): 2.24 and 2.273; TR-FRET signal at compound concentration (CDK12–cyclin K and DDB1; [8]): 2.144 and 2.245 |
| CC[C@H](CO)Nc1nc(NCCCc2cccc(C)n2)c2ncn(C(C)C)c2n1 [DS69] | – | 864 | 599 | 36 ± 1 | 0.3264 and 0.326 | 0.4029 and 0.3893 | 0.5395 and 0.5039 | 0.8326 and 0.7539 | 1.268 and 1.146 | 1.86 and 1.701 | 2.3803 and 2.291 | 2.963 and 2.837 | 3.2576 and 3.227 | 3.4627 and 3.352 | 3.462 and 3.373 | 35.9 | 35.9 | 217 | – |
| CC[C@H](CO)Nc1nc(NCCCc2ccc(Cl)c(Cl)c2)c2ncn(C(C)C)c2n1 [DS65] | – | 528 | 214 | 21 ± 1 | 0.285 and 0.2127 and 0.2055 | 0.3417 and 0.2944 and 0.2907 | 0.5004 and 0.4783 and 0.4869 | 0.7813 and 0.9382 and 0.8877 | 1.382 and 1.799 and 1.705 | 2.38 and 2.795 and 2.787 | 3.286 and 3.376 and 3.32 | 3.728 and 3.691 and 3.7229 | 3.806 and 3.848 and 3.815 | 3.884 and 3.899 and 3.865 | 3.902 and 3.823 and 3.872 | 20.8 | 20.8 | 103 | – |
| CC[C@H](CO)Nc1nc(NCCCC2CCCCC2)c2ncn(C(C)C)c2n1 [DS32] | > 10000 | > 10000 | 0 | – | – | – | – | – | – | – | – | – | – | – | – | 676 | – | – | EC50 (CDK12–cyclin K and DDB1; [24]): 676 nM; fold lower affinity than DS11 (CDK12–cyclin K and DDB1; TR-FRET complex formation): ten-fold; TR-FRET signal, individual replicate (CDK12–cyclin K and DDB1; compound concentration 4.68 nM): 0.2147 and 0.2508; TR-FRET signal, individual replicate (CDK12–cyclin K and DDB1; compound concentration 21.6 nM): 0.2391 and 0.2736; TR-FRET signal, individual replicate (CDK12–cyclin K and DDB1; compound concentration 36 nM): 0.287 and 0.3299; TR-FRET signal, individual replicate (CDK12–cyclin K and DDB1; [2]): 0.3607 and 0.4271; TR-FRET signal, individual replicate (CDK12–cyclin K and DDB1; [3]): 0.4885 and 0.5801; TR-FRET signal, individual replicate (CDK12–cyclin K and DDB1; [4]): 0.7088 and 0.8235; TR-FRET signal, individual replicate (CDK12–cyclin K and DDB1; [5]): 1.016 and 1.206; TR-FRET signal, individual replicate (CDK12–cyclin K and DDB1; [6]): 1.37 and 1.584; TR-FRET signal, individual replicate (CDK12–cyclin K and DDB1; compound concentration 2448 nM): 1.698 and 1.9826; TR-FRET signal, individual replicate (CDK12–cyclin K and DDB1; [7]): 1.942 and 2.207; TR-FRET signal, individual replicate (CDK12–cyclin K and DDB1; [8]): 1.955 and 2.01 |
